These compounds were tested against human M4 receptor (Homo sapiens (Human), UniProt P08173) (assay: Radioligand (tritiated N-methylscopolamine) binding assay, M4). Conditions: Ki against the M4 receptor; membranes from CHO cells expressing human M4; tritiated N-methylscopolamine 1.5 nM; read-out: Ki.
In short: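 Membranes from CHO cells expressing the receptor were incubated with 1.5 nM radioligand and twelve compound concentrations (10 μM to […]) for 90 min at 37 °C in 50 mM HEPES, 100 mM NaCl, 5 mM MgCl2, 1 mM EDTA, pH 7.4. Bound radioligand was collected by filtration and counted, and Ki was derived from inhibition.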

Chain of human M4 receptor (P08173 whole entry): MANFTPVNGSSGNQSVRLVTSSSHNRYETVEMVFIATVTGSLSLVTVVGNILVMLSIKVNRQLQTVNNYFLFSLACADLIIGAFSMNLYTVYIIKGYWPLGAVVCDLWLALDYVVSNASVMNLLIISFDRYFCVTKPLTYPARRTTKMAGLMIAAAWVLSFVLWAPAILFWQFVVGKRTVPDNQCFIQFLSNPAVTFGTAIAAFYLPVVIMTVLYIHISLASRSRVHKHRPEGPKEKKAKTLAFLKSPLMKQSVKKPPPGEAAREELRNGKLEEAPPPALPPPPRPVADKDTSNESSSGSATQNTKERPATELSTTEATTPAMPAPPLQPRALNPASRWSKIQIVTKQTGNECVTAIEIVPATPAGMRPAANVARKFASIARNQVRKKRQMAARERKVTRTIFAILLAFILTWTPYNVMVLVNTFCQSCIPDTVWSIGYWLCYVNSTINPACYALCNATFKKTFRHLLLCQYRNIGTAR

| SMILES | Ki [nM] |
| --- | --- |
| COc1cccc(C2CCN(C(=O)NCCC3CCN(Cc4ccccc4)CC3)CC2)c1 [8-5, N-[2-(1-benzylpiperidin-4-yl)ethyl]-4-(3-methoxyphenyl)piperidine-1-carboxamide] | 100 to 1000 |
| O=C(NCCC1CCN(Cc2ccccc2)CC1)c1ccc(-c2ccc(Cl)cc2)cc1F [9-12, N-[2-(1-benzylpiperidin-4-yl)ethyl]-4-(4-chlorophenyl)-2-fluorobenzamide] | 10 to 100 |
| O=C(c1ccc(-c2cccs2)cc1)N(C1CC1)C1CCN(Cc2ccccc2)CC1 [9-53, N-(1-benzylpiperidin-4-yl)-N-cyclopropyl-4-(thiophen-2-yl)benzamide] | 100 to 1000 |
| CC(C)c1noc(C2CCN(C(=O)NCCC3CCN(Cc4ccccc4)CC3)CC2)n1 [8-31, N-[2-(1-benzylpiperidin-4-yl)ethyl]-4-[3-(propan-2-yl)-1,2,4-oxadiazol-5-yl]piperidine-1-carboxamide] | 100 to 1000 |
| O=C(NCC[C@H]1CCN(Cc2ccccc2)C1)C1CCN(c2ccc(OC(F)(F)F)cc2)CC1 [9-49, N-{2-[(3S)-1-benzylpyrrolidin-3-yl]ethyl}-1-[4-(trifluoromethoxy)phenyl]piperidine-4-carboxamide] | 100 to 1000 |
| CCC(C)NC(=O)c1cnc(N2C[C@@H](C)N(C(=O)NCCC3CCN(Cc4ccccc4)CC3)[C@@H](C)C2)nc1 (stereo partly drawn) [27-8] | 100 to 1000 |
| O=C(OCCC1CCN(Cc2ccccc2)CC1)N1CCC(c2ccccc2)CC1 [12-8, 2-(1-benzylpiperidin-4-yl)ethyl 4-phenylpiperidine-1-carboxylate] | 100 to 1000 |
| Cc1nc(-c2ccc(C(F)(F)F)cc2)sc1C(=O)NCCC1CCN(Cc2ccccc2)CC1 [9-32, N-[2-(1-benzylpiperidin-4-yl)ethyl]-4-methyl-2-[4-(trifluoromethyl)phenyl]-1,3-thiazole-5-carboxamide] | 10 to 100 |
| C[C@@H]1CN(c2nc(F)c(F)c(F)n2)CCN1C(=O)NCCC1CCN(Cc2ccccc2)CC1 [5-6, (2R)-N-[2-(1-benzylpiperidin-4-yl)ethyl]-2-methyl-4-(trifluoropyrimidin-2-yl)piperazine-1-carboxamide] | 10 to 100 |
| COc1ccccc1C1CCN(C(=O)NCCC2CCN(Cc3ccccc3)CC2)CC1 [8-6, N-[2-(1-benzylpiperidin-4-yl)ethyl]-4-(2-methoxyphenyl)piperidine-1-carboxamide] | 100 to 1000 |
| O=C(NCC[C@@H]1CCN(Cc2ccccc2)C1)C1CCN(c2ccc(OC(F)(F)F)cc2)CC1 [9-66, N-{2-[(3R)-1-benzylpyrrolidin-3-yl]ethyl}-1-[4-(trifluoromethoxy)phenyl]piperidine-4-carboxamide] | 100 to 1000 |
| C[C@@H]1CN(c2nc(C#N)cc(C#N)n2)CCN1C(=O)NCCC1CCN(Cc2ccccc2)CC1 [4-75, (2R)-N-[2-(1-benzylpiperidin-4-yl)ethyl]-4-(4,6-dicyanopyrimidin-2-yl)-2-methylpiperazine-1-carboxamide] | 10 to 100 |
| O=C(NCCC1CCN(Cc2ccccc2)CC1)N1CCC(c2ccc(F)cc2)CC1 [8-20, N-[2-(1-benzylpiperidin-4-yl)ethyl]-4-(4-fluorophenyl)piperidine-1-carboxamide] | 100 to 1000 |
| C[C@@H]1CN(c2ccnc(C(F)(F)F)c2)CCN1C(=O)NCCC1CCN(Cc2ccccc2)CC1 [22-29] | 10 to 100 |
| CC1CN(c2ccccc2OC(F)(F)F)CCC1C(=O)NCCC1CCN(Cc2ccccc2)CC1 (stereo not drawn) [10-16, N-[2-(1-benzylpiperidin-4-yl)ethyl]-3-methyl-1-[2-(trifluoromethoxy)phenyl]piperidine-4-carboxamide] | 100 to 1000 |
| C[C@@H]1CN(c2ccccc2)CCN1C(=O)NCCC1CCN(Cc2ccccc2)CC1 [4-47, (2R)-N-[2-(1-benzylpiperidin-4-yl)ethyl]-2-methyl-4-phenylpiperazine-1-carboxamide] | 10 to 100 |
| Cc1nc(C(=O)NCCC2CCN(Cc3ccccc3)CC2)cn1-c1ccc(C#N)cn1 [9-74, N-[2-(1-benzylpiperidin-4-yl)ethyl]-1-(5-cyanopyridin-2-yl)-2-methyl-1H-imidazole-4-carboxamide] | 100 to 1000 |
| COc1ccccc1C1(O)CCN(C(=O)NCCC2CCN(Cc3ccccc3)CC2)CC1 [8-42, N-[2-(1-benzylpiperidin-4-yl)ethyl]-4-hydroxy-4-(2-methoxyphenyl)piperidine-1-carboxamide] | 100 to 1000 |
| N#Cc1ccc(N2CCC(C(=O)NCCC3CCN(Cc4ccc5[nH]ccc5c4)CC3)CC2)nc1 [6-11, 1-(5-cyanopyridin-2-yl)-N-{2-[1-(1H-indol-5-ylmethyl)piperidin-4-yl]ethyl}piperidine-4-carboxamide] | 10 to 100 |
| C[C@@H]1CN(c2ncc(C#N)cn2)C[C@H](C)N1C(=O)NCCC1CCN(C2Cc3ccccc3C2)CC1 [21-4, (2R,6S)-4-(5-cyanopyrimidin-2-yl)-N-{2-[l-(2,3-dihydro-1H-inden-2-yl)piperidin-4-yl]ethyl}-2,6-dimethylpiperazine-1-carboxamide] | 10 to 100 |
| C[C@@H]1CN(c2ncc(C#N)cn2)C[C@H](C)N1C(=O)NCCC1CCN(CC2(C)COC2)CC1 [21-10] | 100 to 1000 |
| Cc1c(C(=O)NCCC2CCN(Cc3ccccc3)CC2)cnc2cc(-c3ccc(C#N)cc3)nn12 [18-3] | 100 to 1000 |
| O=C(NCCC1CCN(Cc2ccc(O)cc2)CC1)C1CCN(c2ccc(OC(F)(F)F)cc2)CC1 [11-1, N-(2-{1-[(4-hydroxyphenyl)methyl]piperidin-4-yl}ethyl)-1-[4-(trifluoromethoxy)phenyl]piperidine-4-carboxamide] | 10 to 100 |
| C[C@@H]1CN(c2ncc(C#N)c(NCC(F)(F)F)n2)CCN1C(=O)NCCC1CCN(Cc2ccccc2)CC1 [5-7, (2R)-N-[2-(1-benzylpiperidin-4-yl)ethyl]-4-{5-cyano-4-[(2,2,2-trifluoroethyl)amino]pyrimidin-2-yl}-2-methylpiperazine-1-carboxamide] | 10 to 100 |
| O=C(NCCC1CCN(Cc2ccccc2)CC1)N1CCC(c2cccc(F)c2)CC1 [8-26, N-[2-(1-benzylpiperidin-4-yl)ethyl]-4-(3-fluorophenyl)piperidine-1-carboxamide] | 100 to 1000 |
| C[C@@H]1CN(c2ncc(C#N)cn2)C[C@H](C)N1C(=O)NCCC1CCN(Cc2ccc3c(c2)nnn3C)CC1 [6-66, (2R,6S)-4-(5-cyanopyrimidin-2-yl)-2,6-dimethyl-N-(2-{1-[(1-methyl-1H-1,2,3-benzotriazol-5-yl)methyl]piperidin-4-yl}ethyl)piperazine-1-carboxamide] | 100 to 1000 |
| O=C(NCCC1CCN(Cc2ccccc2)CC1)C1CCN(c2ncc(Br)cn2)CC1 [9-37, N-[2-(1-benzylpiperidin-4-yl)ethyl]-1-(5-bromopyrimidin-2-yl)piperidine-4-carboxamide] | 100 to 1000 |
| CN(C(=O)c1ccc(Cl)c(-c2nc3ccccc3cc2C#N)c1)[C@@H]1CCN(C2CCCCC2)C1 [9-18, 4-chloro-3-(3-cyanoquinolin-2-yl)-N-[(3R)-1-cyclohexylpyrrolidin-3-yl]-N-methylbenzamide] | 100 to 1000 |
| O=C(NCCC1CCN(Cc2cccc(F)c2)CC1)c1ccc(OCc2ccccc2)cc1 [11-24, 4-(benzyloxy)-N-(2-{1-[(3-fluorophenyl)methyl]piperidin-4-yl}ethyl)benzamide] | 100 to 1000 |
| N#Cc1cc(N2CCC(C(=O)NC[C@H](O)C3CCN(Cc4ccccc4)CC3)CC2)ccc1F [9-15, N-[(2R)-2-(1-benzylpiperidin-4-yl)-2-hydroxyethyl]-1-(3-cyano-4-fluorophenyl)piperidine-4-carboxamide] | 10 to 100 |

— patent US11033539B2, “Compounds of formulas (VII), (VIII), (IX), (XI), (XII), (XIII), and (XIV) as muscarinic receptor 4(M4) antagonists for treating neurological diseases” (Neurocrine Biosciences, Inc., priority 2015, dated 2021)
